Results on one compound are retold here after patent publication US8338492B2, “Films and particles” (priority 2006, dated 2012).

The test system of assay [1] is Lewis Lung Carcinoma (LLC) cell line. The experiment in a line: Cell proliferation assay (MTT, 5 days) with paclitaxel. The class given is cell-based, murine. The conditions noted are these: media containing 10% FBS. As to the method:
(§1) Lewis Lung Carcinoma (LLC), Melanoma and Calu6 (human lung cancer) cell lines were plated at 3,000 cells/well and when established, cultured in media with/without paclitaxel.

Assay [2] deals with Calu6 (human lung cancer) cell line. The assay is described as above. The class given is cell-based. The conditions noted are these: media containing 10% FBS. How it is done: as §1
The test system of a further assay is Melanoma cell line. The conditions noted are these: 5 days, media containing 10% FBS.
Another assay has as its system Tumor cells. The conditions noted are these: estimated.

Structures are written as SMILES.

Protocol for Melanoma cell line: Cell proliferation assays testing the effects of paclitaxel were performed using three tumor cell lines. Lewis Lung Carcinoma (LLC), Melanoma and Calu6 (human lung cancer) cell lines were plated at 3,000 cells/well and when established, cultured in media with/without paclitaxel. Some cultures were maintained with optimal growth factors (serum) whereas others were serum starved (non-growing) cultures. At the end of 5 days, tumor cell proliferation was assessed via MTT analysis.
To determine the kinetics of the anti-tumor response elicited by paclitaxel-loaded microparticles and to assess for a potential “burst effect” of drug release, a cell proliferation assay comparing paclitaxel-loaded microparticles and DMSO (control) microparticles using the melanoma cell line was run for five consecutive days with a plate undergoing MTT analysis each day for days 2-5. Paclitaxel loaded microparticles and DMSO microparticles were added to serum rich media and individually assessed on tumor cells of the same plate.
Protocol for Tumor cells: Cell proliferation assays were utilized to study the effects of paclitaxel-loaded microparticles on tumor growth. Tumor cells were plated at 3000 cells/well and positive (serum-rich) and negative (serum-poor) cultures were used to signify 0% and 100% growth inhibition respectively.

With `CC(=O)O[C@H]1C(=O)[C@@]2(C)[C@H]([C@H](OC(=O)c3ccccc3)[C@]3(O)C[C@H](OC(=O)[C@H](O)[C@@H](NC(=O)c4ccccc4)c4ccccc4)C(C)=C1C3(C)C)[C@]1(OC(C)=O)CO[C@@H]1C[C@@H]2O` [paclitaxel], the “paclitaxel concentration that reliably inhibits growth” value (in assay [1]; in assay [2]; in the assay with Melanoma cell line) was 1 to 10 ng/mL throughout. In addition, the “range of tumoricidal effects of paclitaxel” value in the assay on Tumor cells is 5 to 10 ng.
